Tests used:
mice treated with MPTP = details: cited from earlier work
mice (model of anxiety) [1] = details: reported by Addex 2010; cited from earlier work
mice (model of anxiety) [2] = details: reported by Addex 2010; cited from earlier work; remark: listed apart in the source
rats (model of anxiety) = details: cited from earlier work
human mGlu4 receptor = human mGlu4 receptor (Homo sapiens (Human), UniProt Q14833); assay: Ca2+ mobilization in vitro assay on recombinant human mGlu4 expressed in HEK293 cells (PAM); assay type: cell-based; details: for Emax: HEK293, maximal response in % of maximal stimulatory effect of saturating L-AP4, read-out: Eff. (%); for EC50: HEK293 cells, human mGlu4, in presence of EC20 of L-AP4, read-out: EC50 (nM) mGlu4PAM
Outline: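 HEK293 cells stably expressing human mGlu4 at low level, Fluo-4AM loaded; compound (11 half-log dilutions) pre-incubated 10–30 min at 37 °C, then L-AP4 added at EC20 (determined daily). Peak fluorescence minus basal, normalized to saturating L-AP4; EC50, Hill slope and % Emax from four-parameter fit.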

[3] = tested on: 6-OHDA rodent model of PD; details: cited from earlier work

Sequence of human mGlu4 receptor (Q14833 33-912): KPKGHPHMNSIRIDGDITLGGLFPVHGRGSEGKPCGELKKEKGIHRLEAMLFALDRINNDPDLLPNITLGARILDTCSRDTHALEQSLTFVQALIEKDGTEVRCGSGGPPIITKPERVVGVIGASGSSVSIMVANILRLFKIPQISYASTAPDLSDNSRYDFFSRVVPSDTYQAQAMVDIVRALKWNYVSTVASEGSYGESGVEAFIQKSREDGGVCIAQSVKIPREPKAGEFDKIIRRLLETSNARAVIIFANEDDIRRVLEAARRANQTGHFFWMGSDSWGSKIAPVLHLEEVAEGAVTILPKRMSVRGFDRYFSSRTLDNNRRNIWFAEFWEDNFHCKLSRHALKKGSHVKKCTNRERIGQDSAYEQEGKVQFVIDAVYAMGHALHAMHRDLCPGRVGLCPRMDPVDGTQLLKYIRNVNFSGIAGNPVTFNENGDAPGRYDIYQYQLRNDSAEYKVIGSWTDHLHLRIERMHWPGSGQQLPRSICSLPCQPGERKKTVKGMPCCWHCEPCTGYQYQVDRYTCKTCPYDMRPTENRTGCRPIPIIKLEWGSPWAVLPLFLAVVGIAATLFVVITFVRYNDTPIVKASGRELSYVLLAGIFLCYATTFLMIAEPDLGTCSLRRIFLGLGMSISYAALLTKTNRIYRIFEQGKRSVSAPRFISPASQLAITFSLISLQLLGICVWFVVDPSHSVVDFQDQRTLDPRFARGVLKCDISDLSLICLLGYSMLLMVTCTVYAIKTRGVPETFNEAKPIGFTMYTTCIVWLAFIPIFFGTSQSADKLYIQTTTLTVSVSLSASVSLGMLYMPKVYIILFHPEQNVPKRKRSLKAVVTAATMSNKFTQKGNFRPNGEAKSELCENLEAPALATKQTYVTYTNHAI

Row | SMILES | Emax (human mGlu4 receptor) [%] | EC50 (human mGlu4 receptor) [nM] | also measured
1 | O=C(Nc1ccccc1)C12CC1/C(=N\O)c1ccccc1O2 (single isomer, unassigned; (-)) [(−)-PHCCC] | – | – | nigrostriatal degeneration (mice treated with MPTP): reduced nigrostriatal degeneration
2 | Cc1ccnc(Nc2nc(-c3cn[nH]c3)c(C)s2)n1 [ADX88178] | – | – | activity in EPM (mice (model of anxiety) [1]): active; activity in marble burying test (mice (model of anxiety) [2]): active; profile in rat EPM test (rats (model of anxiety); rat, after oral dosing): anxiolytic-like profile; activity in EPM (rats (model of anxiety); rats, reported by Addex 2010): active
3 | COC[C@@]12CC(=O)N(c3c(F)cc(C#Cc4ccccc4)cc3F)C(=O)N1CCN(c1cccnc1)C2=O [Example 103, (9aR)-7-[2,6-difluoro-4-(2-phenylethynyl)phenyl]-9a-(methoxymethyl)-2-(3-pyridyl)-4,9-dihydro-3H-pyrazino[1,2-c]pyrimidine-1,6,8-trione] | 118 | 169 | –
4 | COC[C@@]12CC(=O)N(c3c(F)cc(C#Cc4ccccc4)cc3F)C(=O)N1CCN(c1cnn(C)c1)C2=O [Example 105, (9aR)-7-[2,6-difluoro-4-(2-phenylethynyl)phenyl]-9a-(methoxymethyl)-2-(1-methylpyrazol-4-yl)-4,9-dihydro-3H-pyrazino[1,2-c]pyrimidine-1,6,8-trione] | 144 | 61 | –
5 | CC[C@@]12CC(=O)N(c3c(F)cc(C#Cc4ccccc4)cc3F)C(=O)N1CCN(c1cccnc1)C2=O [Example 106, (9aS)-7-[2,6-difluoro-4-(2-phenylethynyl)phenyl]-9a-ethyl-2-(3-pyridyl)-4,9-dihydro-3H-pyrazino[1,2-c]pyrimidine-1,6,8-trione] | 112 | 95 | –
6 | CC[C@@]12CC(=O)N(c3c(F)cc(C#Cc4ccccc4)cc3F)C(=O)N1CCN(c1cnn(C)c1)C2=O [Example 107, (9aS)-7-[2,6-difluoro-4-(2-phenylethynyl)phenyl]-9a-ethyl-2-(1-methylpyrazol-4-yl)-4,9-dihydro-3H-pyrazino[1,2-c]pyrimidine-1,6,8-trione] | 125 | 104 | –
7 | C[C@@]12CC(=O)N(c3c(F)cc(C#Cc4ccccc4F)cc3F)C(=O)N1CCN(c1cccnc1)C2=O [Example 109, (9aS)-7-[2,6-difluoro-4-[2-(2-fluorophenyl)ethynyl]phenyl]-9a-methyl-2-(3-pyridyl)-4,9-dihydro-3H-pyrazino[1,2-c]pyrimidine-1,6,8-trione] | 85 | 56 | –
8 | C[C@@]12CC(=O)N(c3c(F)cc(C#Cc4ccccc4F)cc3F)C(=O)N1CCN(c1ccncn1)C2=O [Example 110, (9aS)-7-[2,6-difluoro-4-[2-(2-fluorophenyl)ethynyl]phenyl]-9a-methyl-2-pyrimidin-4-yl-4,9-dihydro-3H-pyrazino[1,2-c]pyrimidine-1,6,8-trione] | 90 | 31 | –
9 | Cn1cc(N2CCN3C(=O)N(c4c(F)cc(C#Cc5ccccc5F)cc4F)C(=O)C[C@@]3(C)C2=O)cn1 [Example 111, (9aS)-7-[2,6-difluoro-4-[2-(2-fluorophenyl)ethynyl]phenyl]-9a-methyl-2-(1-methylpyrazol-4-yl)-4,9-dihydro-3H-pyrazino[1,2-c]pyrimidine-1,6,8-trione] | 120 | 56 | –
10 | N[C@@H](CCP(=O)(O)O)C(=O)O [L-AP4, (2S)-2-amino-4-phosphonobutanoic acid] | – | – | neuroprotection [3]: neuroprotective effects
